The text below walks through data of ChEMBL document CHEMBL4406807, “Discovery of 3,4,6-Trisubstituted Piperidine Derivatives as Orally Active, Low hERG Blocking Akt Inhibitors via Conformational Restriction and Structure-Based Design” (J Med Chem, 2019).

pIC50: −log10 of the molar value. A value given as a limit tells only on which side of the number the result lay.

The nature of data set [1]: Toxicity in BALB/c nude mouse xenografted with human MM1S cells assessed as reduction in mouse survival at 10 mg/kg, po administered once daily for 22 days. Format: organism-based. Conditions: in vivo, 528 h.
Data set [2] deals with hERG (KCNH2) (Homo sapiens, UniProt Q12809). As to the kind of experiment: Inhibition of ERG in human HEK293 cells at 3 uM at -80 mV holding potential by whole-cell patch clamp assay relative to control. Format: cell-based. Conditions: HEK293 cells expressing ERG.
Chain of hERG (KCNH2) (Q12809 whole entry): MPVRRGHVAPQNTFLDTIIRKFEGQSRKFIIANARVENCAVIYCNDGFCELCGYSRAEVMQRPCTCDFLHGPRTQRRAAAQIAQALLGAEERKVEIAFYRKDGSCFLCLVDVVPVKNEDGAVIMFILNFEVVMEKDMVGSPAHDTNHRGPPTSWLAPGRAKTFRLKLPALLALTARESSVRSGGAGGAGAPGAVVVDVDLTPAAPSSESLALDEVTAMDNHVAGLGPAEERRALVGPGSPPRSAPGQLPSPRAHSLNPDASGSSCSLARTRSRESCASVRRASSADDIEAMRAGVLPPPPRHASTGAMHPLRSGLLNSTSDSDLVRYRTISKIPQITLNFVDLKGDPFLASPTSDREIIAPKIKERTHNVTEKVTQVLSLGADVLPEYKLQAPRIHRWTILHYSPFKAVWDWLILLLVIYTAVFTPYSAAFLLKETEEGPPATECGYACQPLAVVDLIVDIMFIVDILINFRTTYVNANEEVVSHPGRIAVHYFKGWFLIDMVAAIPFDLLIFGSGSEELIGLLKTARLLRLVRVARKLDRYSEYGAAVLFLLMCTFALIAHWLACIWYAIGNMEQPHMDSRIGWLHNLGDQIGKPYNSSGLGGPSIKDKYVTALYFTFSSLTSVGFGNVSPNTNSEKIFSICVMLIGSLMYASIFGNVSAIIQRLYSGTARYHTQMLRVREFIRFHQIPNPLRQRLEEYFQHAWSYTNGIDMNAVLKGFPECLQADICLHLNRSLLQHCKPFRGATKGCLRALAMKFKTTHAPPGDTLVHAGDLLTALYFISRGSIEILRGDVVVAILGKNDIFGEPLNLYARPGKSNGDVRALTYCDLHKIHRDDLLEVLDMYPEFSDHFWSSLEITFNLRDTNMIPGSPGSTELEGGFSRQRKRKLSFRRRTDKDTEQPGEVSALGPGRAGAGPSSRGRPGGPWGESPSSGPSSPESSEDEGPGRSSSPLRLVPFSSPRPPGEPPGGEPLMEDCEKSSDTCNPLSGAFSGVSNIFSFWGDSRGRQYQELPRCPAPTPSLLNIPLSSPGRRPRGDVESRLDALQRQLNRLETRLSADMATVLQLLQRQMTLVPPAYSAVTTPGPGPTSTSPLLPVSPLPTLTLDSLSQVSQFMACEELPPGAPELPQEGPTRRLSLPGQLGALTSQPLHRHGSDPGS
Data set [3] is described as follows: Half-life in ICR mouse at 20 mg/kg, po measured up to 48 hrs by LC-MS/MS analysis. The following applies: in vivo. Format: ADME, organism-based.
Data set [4] can be described thus: Oral bioavailability in ICR mouse at 20 mg/kg measured up to 48 hrs by LC-MS/MS analysis. Format: ADME, organism-based. Conditions: in vivo.
A short description of data set [5]: Cmax in ICR mouse at 20 mg/kg, po measured up to 48 hrs by LC-MS/MS analysis. Format: ADME, organism-based. On the set-up: dose 20 mg/kg, route oral. The following applies: in vivo.
In data set [6] the target is T1, Serine/threonine-protein kinase Sgk1 (Homo sapiens, UniProt O00141).
T1 sequence (O00141 whole entry): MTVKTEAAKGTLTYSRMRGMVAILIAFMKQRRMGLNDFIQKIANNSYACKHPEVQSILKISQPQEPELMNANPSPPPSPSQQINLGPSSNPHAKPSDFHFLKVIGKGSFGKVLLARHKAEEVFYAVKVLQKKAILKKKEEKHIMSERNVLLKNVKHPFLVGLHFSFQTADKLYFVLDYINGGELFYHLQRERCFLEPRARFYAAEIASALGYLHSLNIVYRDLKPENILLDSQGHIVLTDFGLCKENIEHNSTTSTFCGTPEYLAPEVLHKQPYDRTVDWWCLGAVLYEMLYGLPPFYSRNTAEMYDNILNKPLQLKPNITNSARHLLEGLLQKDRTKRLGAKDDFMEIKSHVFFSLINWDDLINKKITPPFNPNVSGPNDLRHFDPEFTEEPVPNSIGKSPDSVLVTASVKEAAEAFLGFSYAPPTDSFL
As to the kind of experiment: Inhibition of human SGK by mobility shift assay.

The nature of data set [7]: Toxicity in ICR mouse assessed as reduction in creatinine level at 40 mg/kg, ig administered once daily for 7 days. Conditions: in vivo, po, 168 h. Format: organism-based.
For data set [8], the target named is Ribosomal protein S6 kinase beta-1 (Homo sapiens, UniProt P23443). Put plainly: Inhibition of human P70S6K by mobility shift assay.
Chain of Ribosomal protein S6 kinase beta-1 (P23443 whole entry): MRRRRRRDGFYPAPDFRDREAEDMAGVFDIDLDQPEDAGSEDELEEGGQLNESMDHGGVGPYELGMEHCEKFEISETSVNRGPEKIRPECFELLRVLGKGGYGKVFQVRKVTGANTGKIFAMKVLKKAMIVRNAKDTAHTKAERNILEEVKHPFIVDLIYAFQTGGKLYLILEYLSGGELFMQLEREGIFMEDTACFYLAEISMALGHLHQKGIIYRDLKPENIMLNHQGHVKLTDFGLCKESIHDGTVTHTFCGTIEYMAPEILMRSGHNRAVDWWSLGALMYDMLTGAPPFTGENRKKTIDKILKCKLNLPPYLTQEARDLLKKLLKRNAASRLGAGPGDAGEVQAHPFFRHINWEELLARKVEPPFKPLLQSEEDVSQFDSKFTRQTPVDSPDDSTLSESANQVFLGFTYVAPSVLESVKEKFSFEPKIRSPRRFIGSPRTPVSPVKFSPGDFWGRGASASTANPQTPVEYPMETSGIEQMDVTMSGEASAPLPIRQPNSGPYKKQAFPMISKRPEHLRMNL
A short description of data set [9]: Toxicity in po dosed BALB/c nude mouse xenografted with human MM1S cells assessed as maximum tolerated dose administered once daily for 22 days. Conditions: in vivo. Format: organism-based.
A short description of data set [10]: Toxicity in ICR mouse assessed as reduction in specific volume of RBC at 40 mg/kg, ig administered once daily for 7 days. Format: organism-based. Conditions: in vivo, po, 168 h.
Data set [11] deals with MM1.S. Put plainly: Antitumor activity against human MM1S cells xenografted in BALB/c nude mouse assessed as tumor growth inhibition at 10 mg/kg, po administered once daily for 22 days relative to control. Format: functional. Conditions: 528 h, read-out: TGI.
Data set [12] is described as follows: Toxicity in ICR mouse assessed as reduction in hemoglobin level at 40 mg/kg, ig administered once daily for 7 days. Format: organism-based. Conditions: in vivo, po, 168 h.
Data set [13] in a line: AUC (0 to infinity) in ICR mouse at 20 mg/kg, po measured up to 48 hrs by LC-MS/MS analysis. Conditions: in vivo. Format: ADME, organism-based. On the set-up: dose 20 mg/kg, time infinity, route oral.
For data set [14], the target named is Protein kinase C (PKC). Put plainly: Inhibition of PKC (unknown origin). Format: protein assay, Homo sapiens.
Data set [15] has as its target RAC-gamma serine/threonine-protein kinase (Homo sapiens, UniProt Q9Y243). As to the kind of experiment: Inhibition of Akt3 (unknown origin) by mobile shift assay.
In data set [16] the target is Ribosomal protein S6 kinase alpha-1 (Homo sapiens, UniProt Q15418). Put plainly: Inhibition of RSK1 (unknown origin) by mobility shift assay.
Chain of Ribosomal protein S6 kinase alpha-1 (Q15418 whole entry): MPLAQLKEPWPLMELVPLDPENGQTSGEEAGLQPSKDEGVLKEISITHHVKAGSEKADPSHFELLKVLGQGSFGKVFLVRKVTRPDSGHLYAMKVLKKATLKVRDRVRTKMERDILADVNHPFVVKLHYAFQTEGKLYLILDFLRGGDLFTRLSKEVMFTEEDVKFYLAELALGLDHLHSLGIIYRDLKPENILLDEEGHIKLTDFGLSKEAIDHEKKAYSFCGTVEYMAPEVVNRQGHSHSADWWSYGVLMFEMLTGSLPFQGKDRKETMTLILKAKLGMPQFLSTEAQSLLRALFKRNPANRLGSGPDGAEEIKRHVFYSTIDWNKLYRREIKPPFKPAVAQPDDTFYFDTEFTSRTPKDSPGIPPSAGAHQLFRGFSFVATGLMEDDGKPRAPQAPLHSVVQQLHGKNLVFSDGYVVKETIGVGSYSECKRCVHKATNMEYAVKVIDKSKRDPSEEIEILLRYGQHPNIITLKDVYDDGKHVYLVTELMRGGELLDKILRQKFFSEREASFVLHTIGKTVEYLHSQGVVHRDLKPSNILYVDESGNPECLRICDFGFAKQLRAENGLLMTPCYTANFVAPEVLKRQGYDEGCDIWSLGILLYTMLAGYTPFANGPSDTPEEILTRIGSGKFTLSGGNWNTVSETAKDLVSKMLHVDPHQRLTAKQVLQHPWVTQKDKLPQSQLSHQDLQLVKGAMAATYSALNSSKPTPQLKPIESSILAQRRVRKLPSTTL
The test system of data set [17] is HCT-116. Put plainly: cells. Conditions: Homo sapiens, HCT-116, 72 h.
Data set [18] can be described thus: Microsomal stability in monkey liver microsomes assessed as compound remaining at 100 ug/ml in presence of NADPH measured at 1.5 hrs by LC/MS analysis. Conditions: rhesus monkey, read-out: Stability. Format: ADME, Macaca mulatta, Microsome.
Data set [19] is described as follows: Toxicity in ICR mouse assessed as reduction in red blood cells at 40 mg/kg, ig administered once daily for 7 days. Conditions: in vivo, po, 168 h. Format: organism-based.
Data set [20] can be described thus: Toxicity in ICR mouse assessed as induction of heavy gastrointestinal hemorrhage by autopsy analysis. Conditions: in vivo.
The target of data set [21] is RAC-alpha serine/threonine-protein kinase (Homo sapiens, UniProt P31749).
Chain of RAC-alpha serine/threonine-protein kinase (P31749 whole entry): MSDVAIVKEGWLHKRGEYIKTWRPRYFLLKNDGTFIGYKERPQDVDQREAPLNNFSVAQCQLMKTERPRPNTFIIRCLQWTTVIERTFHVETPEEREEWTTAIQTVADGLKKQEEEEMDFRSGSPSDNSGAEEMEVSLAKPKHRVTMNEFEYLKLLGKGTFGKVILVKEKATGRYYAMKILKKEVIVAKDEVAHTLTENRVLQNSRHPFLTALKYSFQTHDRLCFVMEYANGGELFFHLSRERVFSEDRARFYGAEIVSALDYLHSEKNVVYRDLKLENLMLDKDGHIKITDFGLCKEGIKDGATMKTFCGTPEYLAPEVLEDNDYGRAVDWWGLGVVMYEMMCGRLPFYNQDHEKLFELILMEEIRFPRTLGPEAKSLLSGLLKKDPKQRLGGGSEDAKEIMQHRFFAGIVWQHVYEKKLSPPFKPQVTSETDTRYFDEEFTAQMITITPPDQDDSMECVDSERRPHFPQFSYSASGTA
Description: Inhibition of human Akt1 expressed in Escherichia coli using STK Substrate 2-biotin as substrate incubated for 1 hr by HTRF assay
In data set [22] the target is Rho-associated protein kinase 1 (Homo sapiens, UniProt Q13464). As to the kind of experiment: Inhibition of human ROCK1 by mobile shift assay.
In data set [23] the test system is OVCAR-8. As to the kind of experiment: Antiproliferative activity against human OVCAR8 cells. Format: functional, cell-based.
In data set [24] the test system is LNCaP. Put plainly: Antiproliferative activity against human LNCAP cells. Format: functional, cell-based.
In data set [25] the target is RAC-beta serine/threonine-protein kinase (Homo sapiens, UniProt P31751). Put plainly: Inhibition of human Akt2 by mobile shift assay.
Chain of RAC-beta serine/threonine-protein kinase (P31751 whole entry): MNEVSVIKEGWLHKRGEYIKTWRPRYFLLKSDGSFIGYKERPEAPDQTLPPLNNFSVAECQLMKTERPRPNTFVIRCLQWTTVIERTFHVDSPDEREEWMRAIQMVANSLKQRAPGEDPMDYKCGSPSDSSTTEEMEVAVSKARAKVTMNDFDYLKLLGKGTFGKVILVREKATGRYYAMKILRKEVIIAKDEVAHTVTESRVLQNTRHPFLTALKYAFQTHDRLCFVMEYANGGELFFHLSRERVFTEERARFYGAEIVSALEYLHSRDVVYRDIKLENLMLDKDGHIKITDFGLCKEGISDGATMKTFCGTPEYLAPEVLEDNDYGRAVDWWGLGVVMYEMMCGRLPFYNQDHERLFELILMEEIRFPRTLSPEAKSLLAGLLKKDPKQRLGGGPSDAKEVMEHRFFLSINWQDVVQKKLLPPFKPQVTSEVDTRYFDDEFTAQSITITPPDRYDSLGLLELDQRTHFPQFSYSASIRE
The target in data set [26] is Serine/threonine-protein kinase AKT (Homo sapiens, UniProt P31751+Q9Y243+P31749). As to the kind of experiment: Inhibition of Akt in human LNCaP cells assessed as reduction in PRAS40 phosphorylation at T246 residue after 1 hr by ELISA. Format: cell-based.
Data set [27] is described as follows: Microsomal stability in mouse liver microsomes assessed as compound remaining at 100 ug/ml in presence of NADPH measured at 1.5 hrs by LC/MS analysis. Format: ADME, Microsome. Conditions: read-out: Stability.
The nature of data set [28]: Microsomal stability in dog liver microsomes assessed as compound remaining at 100 ug/ml in presence of NADPH measured at 1.5 hrs by LC/MS analysis. Conditions: read-out: Stability. Format: ADME, Canis lupus familiaris, Microsome.
Data set [29] in a line: Microsomal stability in rat liver microsomes assessed as compound remaining at 100 ug/ml in presence of NADPH measured at 1.5 hrs by LC/MS analysis. Format: ADME, Microsome. Conditions: read-out: Stability.
Data set [30] can be described thus: Toxicity in BALB/c nude mouse xenografted with human MM1S cells assessed as reduction in body weight at 10 mg/kg, po administered once daily for 22 days relative to control. Format: organism-based. On the set-up: scale not given: the % may be the effect or the level left. Conditions: in vivo, 528 h.
Data set [31] in a line: Toxicity in ICR mouse assessed as reduction in mouse survival at 20 to 40 mg/kg, ig administered once daily for 7 days. Format: organism-based. The following applies: in vivo, po, 168 h.
Data set [32] has as its system SK-OV-3. Put plainly: Antitumor activity against human SKOV3 cells xenografted in BALB/c nude mouse assessed as tumor growth inhibition at 60 mg/kg, po administered once daily for 21 days relative to control. Format: functional. Conditions: SK-OV-3, po, 504 h, read-out: TGI.
Data set [33] can be described thus: Toxicity in BALB/c nude mouse xenografted with human SKOV3 cells assessed as effect on body weight at 60 to 80 mg/kg, po administered once daily for 21 days. Format: organism-based. The following applies: in vivo, 504 h.
A short description of data set [34]: Toxicity in BALB/c nude mouse xenografted with human SKOV3 cells assessed as reduction in mouse survival at 60 to 80 mg/kg, po administered once daily for 21 days. Format: organism-based. Conditions: in vivo, 504 h.
Data set [35] can be described thus: Inhibition of recombinant His-tagged human PKA expressed in Escherichia coli using Ser/Thr 01 as substrate after 1 hr by Z-lyte assay.

Chain of RAC-gamma serine/threonine-protein kinase (Q9Y243 whole entry): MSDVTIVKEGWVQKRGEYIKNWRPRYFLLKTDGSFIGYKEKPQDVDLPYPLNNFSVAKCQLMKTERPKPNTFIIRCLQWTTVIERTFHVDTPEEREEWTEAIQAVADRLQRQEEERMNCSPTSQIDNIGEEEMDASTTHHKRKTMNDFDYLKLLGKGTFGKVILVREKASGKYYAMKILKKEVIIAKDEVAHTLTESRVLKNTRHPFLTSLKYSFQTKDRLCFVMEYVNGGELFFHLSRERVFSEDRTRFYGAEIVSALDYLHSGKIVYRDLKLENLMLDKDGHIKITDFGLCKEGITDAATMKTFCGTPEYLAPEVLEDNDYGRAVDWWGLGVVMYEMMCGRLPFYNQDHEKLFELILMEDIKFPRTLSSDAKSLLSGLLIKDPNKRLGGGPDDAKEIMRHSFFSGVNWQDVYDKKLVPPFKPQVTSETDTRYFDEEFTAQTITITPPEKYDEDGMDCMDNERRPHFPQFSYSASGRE

For the compound `Cn1ncc(Cl)c1-c1cc(C(=O)N[C@@H]2CNCC[C@H]2c2ccc(F)c(F)c2)oc1Cl.O=C(O)C(O)C(O)C(=O)O`, the Activity entry in [1], in data set [7], in [10], in data set [12], in [19] and in [20] was “Toxic” in each case. Also, the Activity entry in data set [30] is “<= 25%”; in [31] it was “Toxic”. Also, the inhibition at 3 µM in data set [2] came to 62.1%. This compound had a half-life in data set [3] of 10.7 h. The compound further displayed a bioavailability in [4] of 97.9%. In data set [5], the maximum concentration (Cmax) is 398 ng/mL. Moreover, the pIC50 in data set [6] is 7.23; in data set [8], 8.15; in data set [15], 10.00; in [16], 7.32; in data set [17] it was 6.68; in data set [21], 8.52. The pIC50 in data set [22] is 7.70; in [23], 7.40; in data set [24], 7.22; in [25], more than 9.19. Also, the MTD at 528 h in [9] was less than 10 mg/kg. In data set [11], the inhibition in vivo at 10 mg/kg turned out to be 87.5%. Moreover, in data set [13], the AUC is 6670 ng·h/mL. Also, the values for the IC50 in [14] and in data set [26] were 156 nM and 21.1 nM, respectively. For the same compound, the remaining at 1.5 h, 100 ug/ml in data set [18] worked out at 39.9%; in data set [27], 89.9%; in [28], 86.9%; in data set [29] it was 69.7%.
As for `Cn1ncc(Cl)c1-c1cc(C(=O)N[C@@H]2CN[C@H](CC(=O)NC3CC3)C[C@H]2c2ccc(Cl)c(Cl)c2)oc1Cl`, 3 µM produced 70.4% inhibition in data set [2]. For the same compound, the pIC50 in [17] was 6.13; in data set [21] it was 8.40; in [23] it was 6.24; in [24], 6.72.
For `Cn1ncc(Cl)c1-c1cc(C(=O)N[C@@H]2CN[C@H](CCn3cncn3)C[C@H]2c2ccc(Cl)c(Cl)c2)oc1Cl` the same measures were 50.1%, 6.25, 8.35, 5.81 and 7.22.
Consider `Cn1ncc(Cl)c1-c1cc(C(=O)N[C@@H]2CN[C@H](CCO)C[C@H]2c2ccc(Cl)c(Cl)c2)oc1Cl`, for which the inhibition at 3 µM in data set [2] turned out to be 51.8%. The pIC50 was 6.47 in [17], 8.56 in data set [21], 6.21 in [23] and 6.80 in [24].
The compound `Cn1ncc(Cl)c1-c1cc(C(=O)N[C@H](CN)Cc2ccc(F)c(F)c2)oc1Cl` [UPROSERTIB] showed an inhibition at 3 µM in [2] of 50 to 50.2%. Besides, the negative logarithm of the IC50 (pIC50) in [6] was 6.68; in data set [8], 7.22; in data set [16], 6.47; in [17] it was 5.90 to 6.14; in [23], 5.88 to 6.62; in [24] it was 7.15. The pIC50 in [35] is 9.22. For the same compound, in data set [32], the inhibition in vivo at 60 mg/kg amounted to 63.3%. Further, the Activity result in [33] and in [34] was “Non-Toxic” in each case.
